Reference: patent US12492188B2, “1H-benzo[D]imidazole derivatives as TLR9 inhibitors for the treatment of fibrosis” (BRISTOL-MYERS SQUIBB COMPANY, priority 2020, dated 2025)
pIC50: −log10 of the molar value. Where two headings read alike, the source gives them in different places.

Tests used:
Type in all cases: cell-based
[1] = molecular target: T1, human TLR9 (Homo sapiens, UniProt Q9NR96); experiment: TLR9 inhibition reporter assay (HEK-Blue cells, secreted embryonic alkaline phosphatase reporter); settings: HEK-Blue cells overexpressing human TLR9, stimulated with ODN2006 5 nM
T1 construct: host or cells: HEK-Blue cells (HEK293-derived reporter line)
T1 sequence (Q9NR96 26-1032): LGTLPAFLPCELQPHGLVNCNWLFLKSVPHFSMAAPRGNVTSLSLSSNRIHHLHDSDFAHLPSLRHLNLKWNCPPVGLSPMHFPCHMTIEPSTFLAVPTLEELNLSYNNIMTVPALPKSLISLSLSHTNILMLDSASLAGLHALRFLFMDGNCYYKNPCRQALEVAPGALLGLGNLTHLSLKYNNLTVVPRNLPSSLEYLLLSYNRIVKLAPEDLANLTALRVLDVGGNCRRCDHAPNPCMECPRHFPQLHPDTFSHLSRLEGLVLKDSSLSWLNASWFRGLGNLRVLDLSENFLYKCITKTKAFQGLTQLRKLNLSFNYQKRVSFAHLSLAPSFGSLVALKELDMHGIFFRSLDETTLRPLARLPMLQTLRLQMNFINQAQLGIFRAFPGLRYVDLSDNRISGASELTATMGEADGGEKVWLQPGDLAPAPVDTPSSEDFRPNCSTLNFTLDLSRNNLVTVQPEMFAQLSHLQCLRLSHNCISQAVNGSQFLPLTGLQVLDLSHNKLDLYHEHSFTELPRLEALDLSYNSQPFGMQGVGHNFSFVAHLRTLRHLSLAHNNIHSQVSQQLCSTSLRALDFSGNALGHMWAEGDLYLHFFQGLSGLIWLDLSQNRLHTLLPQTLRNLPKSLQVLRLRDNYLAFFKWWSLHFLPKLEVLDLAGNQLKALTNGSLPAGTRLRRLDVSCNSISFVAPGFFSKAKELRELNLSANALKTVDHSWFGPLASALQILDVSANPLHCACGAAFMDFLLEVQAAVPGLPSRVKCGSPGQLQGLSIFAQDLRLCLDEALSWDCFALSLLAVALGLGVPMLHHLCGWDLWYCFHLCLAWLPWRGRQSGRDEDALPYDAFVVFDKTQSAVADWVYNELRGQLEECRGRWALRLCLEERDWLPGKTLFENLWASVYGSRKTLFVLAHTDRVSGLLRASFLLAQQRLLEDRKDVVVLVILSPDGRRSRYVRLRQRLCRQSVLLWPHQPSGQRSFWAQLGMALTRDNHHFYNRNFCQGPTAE
In short: (§1)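 Steps: seed receptor-specific HEK-Blue cells; add compound, 0.05 nM–50 μM; wait 30 min at room temperature; add final gardiquimod 7.5 μM, R848 15.9 μM or ODN2006 5 nM for TLR7, TLR8 or TLR9; incubate 22 h at 37 °C; detect NF-κB/AP-1-driven SEAP.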

[2] = molecular target: T2, human TLR7 (Homo sapiens, UniProt Q9NYK1); experiment: TLR7 inhibition reporter assay (HEK-Blue cells, secreted embryonic alkaline phosphatase reporter); settings: HEK-Blue cells overexpressing human TLR7, stimulated with gardiquimod 7.5 μM; read-out: TLR 7 IC50
T2 construct: host or cells: HEK-Blue cells (HEK293-derived reporter line)
T2 sequence (Q9NYK1 27-1049): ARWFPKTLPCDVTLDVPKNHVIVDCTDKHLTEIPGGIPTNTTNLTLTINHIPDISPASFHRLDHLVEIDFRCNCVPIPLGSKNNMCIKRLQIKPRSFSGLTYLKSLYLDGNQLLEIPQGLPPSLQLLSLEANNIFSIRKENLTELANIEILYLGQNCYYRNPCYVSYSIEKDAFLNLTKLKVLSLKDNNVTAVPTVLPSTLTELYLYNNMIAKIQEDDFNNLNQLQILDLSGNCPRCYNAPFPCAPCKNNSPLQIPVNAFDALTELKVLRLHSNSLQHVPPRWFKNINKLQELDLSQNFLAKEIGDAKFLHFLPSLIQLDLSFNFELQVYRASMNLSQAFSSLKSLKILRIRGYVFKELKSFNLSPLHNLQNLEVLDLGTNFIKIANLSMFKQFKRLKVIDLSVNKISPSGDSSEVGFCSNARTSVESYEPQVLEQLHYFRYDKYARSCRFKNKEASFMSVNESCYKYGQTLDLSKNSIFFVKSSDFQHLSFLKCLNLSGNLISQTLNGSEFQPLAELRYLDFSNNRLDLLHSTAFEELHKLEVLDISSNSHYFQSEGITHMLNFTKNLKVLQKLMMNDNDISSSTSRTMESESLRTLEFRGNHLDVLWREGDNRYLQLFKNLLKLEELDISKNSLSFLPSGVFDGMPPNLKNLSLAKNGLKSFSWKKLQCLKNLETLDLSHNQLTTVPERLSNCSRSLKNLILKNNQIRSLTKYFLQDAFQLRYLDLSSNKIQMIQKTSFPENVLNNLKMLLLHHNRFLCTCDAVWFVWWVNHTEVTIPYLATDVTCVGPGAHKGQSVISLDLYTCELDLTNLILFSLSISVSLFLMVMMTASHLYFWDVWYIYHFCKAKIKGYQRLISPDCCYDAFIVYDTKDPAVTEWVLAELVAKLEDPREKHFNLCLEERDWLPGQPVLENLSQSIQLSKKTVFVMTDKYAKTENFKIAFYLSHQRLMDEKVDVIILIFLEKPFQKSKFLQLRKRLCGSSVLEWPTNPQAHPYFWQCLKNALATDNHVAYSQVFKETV
In short: as §1

[3] = molecular target: T3, human TLR8 (Homo sapiens, UniProt Q9NR97); experiment: TLR8 inhibition reporter assay (HEK-Blue cells, secreted embryonic alkaline phosphatase reporter); settings: HEK-Blue cells overexpressing human TLR8, stimulated with R848 15.9 μM; read-out: TLR 8 IC50
T3 construct: host or cells: HEK-Blue cells (HEK293-derived reporter line)
T3 sequence (Q9NR97 27-1041): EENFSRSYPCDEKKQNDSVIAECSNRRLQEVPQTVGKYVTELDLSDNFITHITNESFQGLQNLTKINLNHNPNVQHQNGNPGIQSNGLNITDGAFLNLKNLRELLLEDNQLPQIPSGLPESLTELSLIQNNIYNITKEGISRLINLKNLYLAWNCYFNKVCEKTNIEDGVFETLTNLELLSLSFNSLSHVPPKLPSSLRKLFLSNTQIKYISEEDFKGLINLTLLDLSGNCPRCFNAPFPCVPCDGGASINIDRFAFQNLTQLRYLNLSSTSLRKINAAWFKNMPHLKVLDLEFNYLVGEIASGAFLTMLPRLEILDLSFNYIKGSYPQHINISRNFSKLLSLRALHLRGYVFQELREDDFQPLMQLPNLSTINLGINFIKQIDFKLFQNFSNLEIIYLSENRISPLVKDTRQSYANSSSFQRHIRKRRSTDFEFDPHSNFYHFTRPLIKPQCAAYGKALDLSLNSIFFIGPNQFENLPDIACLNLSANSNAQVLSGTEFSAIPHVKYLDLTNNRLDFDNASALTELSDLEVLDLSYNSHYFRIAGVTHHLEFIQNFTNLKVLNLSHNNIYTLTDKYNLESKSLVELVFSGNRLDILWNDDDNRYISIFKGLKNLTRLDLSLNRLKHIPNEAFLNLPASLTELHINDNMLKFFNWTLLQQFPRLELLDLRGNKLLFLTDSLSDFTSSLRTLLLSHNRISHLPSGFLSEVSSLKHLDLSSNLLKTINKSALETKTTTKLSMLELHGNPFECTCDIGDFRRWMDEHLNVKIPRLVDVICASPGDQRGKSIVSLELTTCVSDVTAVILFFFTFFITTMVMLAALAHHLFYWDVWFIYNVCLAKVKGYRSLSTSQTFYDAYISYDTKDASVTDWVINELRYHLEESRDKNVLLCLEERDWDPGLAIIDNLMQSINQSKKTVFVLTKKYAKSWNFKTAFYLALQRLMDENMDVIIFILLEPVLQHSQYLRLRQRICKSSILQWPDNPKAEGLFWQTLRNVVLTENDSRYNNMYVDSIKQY
In short: as §1

[4] = 22 hour incubation, reporter readout

pIC50 [1, 4]	pIC50 ([1]; read-out: TLR 9 IC50)	pIC50 [2]	pIC50 [3]	SMILES
7.01	7.01	6.00	5.57	Cc1cc(-c2ccc(CN3CC4(C3)CN(C(C)C)C4)cc2)cc2c1nc(-c1ccc(S(C)(=O)=O)cc1)n2C [Example 399, 6-(4-((6-isopropyl-2,6-diazaspiro[3.3]heptan-2-yl)methyl)phenyl)-1,4-dimethyl-2-(4-(methylsulfonyl)phenyl)-1H-benzo[d]imidazole]
7.12	7.12	5.82	5.89	Cc1cc(-c2ccc(C3CCN(C4CCN(C)CC4)CC3)cc2)cc2c1nc(-c1ccc(S(C)(=O)=O)cc1)n2C [Example 400, 1,4-dimethyl-6-(4-(1′-methyl-[1,4′-bipiperidin]-4-yl)phenyl)-2-(4-(methylsulfonyl)phenyl)-1H-benzo[d]imidazole]
7.00	6.98	5.57	5.92	Cc1cc(-c2ccc(C3CCN(C4CCN(C5CC5)CC4)CC3)cc2)cc2c1nc(-c1ccc(S(C)(=O)=O)cc1)n2C [Example 401, 6-(4-(1′-cyclopropyl-[1,4′-bipiperidin]-4-yl)phenyl)-1,4-dimethyl-2-(4-(methylsulfonyl)phenyl)-1H-benzo[d]imidazole]
8.41	8.41	6.22	5.24	Cc1cc(-c2ccc(CN3CCC(N4CCC4)CC3)cc2)cc2c1nc(-c1ccc(S(C)(=O)=O)cc1)n2C [Example 402, 6-(4-((4-(azetidin-1-yl)piperidin-1-yl)methyl)phenyl)-1,4-dimethyl-2-(4-(methylsulfonyl)phenyl)-1H-benzo[d]imidazole]
7.09	7.03	6.52	4.80	Cc1cc(-c2ccc(CN3CCC(N4CCC4)CC3)c(F)c2)cc2c1nc(-c1ccc(S(C)(=O)=O)cc1)n2C [Example 403, 6-(4-((4-(azetidin-1-yl)piperidin-1-yl)methyl)-3-fluorophenyl)-1,4-dimethyl-2-(4-(methylsulfonyl)phenyl)-1H-benzo[d]imidazole]
7.16	7.16	7.00	5.14	Cc1cc(-c2ccc(CN3CC4(C3)CN(C(C)C)C4)c(F)c2)cc2c1nc(-c1ccc(S(C)(=O)=O)cc1)n2C [Example 404, 6-(3-fluoro-4-((6-isopropyl-2,6-diazaspiro[3.3]heptan-2-yl)methyl)phenyl)-1,4-dimethyl-2-(4-(methylsulfonyl)phenyl)-1H-benzo[d]imidazole]
7.68	7.68	6.52	6.05	Cc1cc(-c2cc(F)cc(CN3CCC(N4CCCC4)CC3)c2)cc2c1nc(-c1ccc(S(C)(=O)=O)cc1)n2C [Example 405, 6-(3-fluoro-5-((4-(pyrrolidin-1-yl)piperidin-1-yl)methyl)phenyl)-1,4-dimethyl-2-(4-(methylsulfonyl)phenyl)-1H-benzo[d]imidazole]
6.89	6.88	6.22	5.70	Cc1cc(-c2cc(F)cc(CN3CCC(N4CCC4)CC3)c2)cc2c1nc(-c1ccc(S(C)(=O)=O)cc1)n2C [Example 406, 6-(3-((4-(azetidin-1-yl)piperidin-1-yl)methyl)-5-fluorophenyl)-1,4-dimethyl-2-(4-(methylsulfonyl)phenyl)-1H-benzo[d]imidazole]
7.34	7.34	6.10	5.30	Cc1cc(-c2cccc(CN3CCC(N4CCCC4)CC3)c2)cc2c1nc(-c1ccc(S(C)(=O)=O)cc1)n2C1CC1 [Example 407, 1-cyclopropyl-4-methyl-2-(4-(methylsulfonyl)phenyl)-6-(3-((4-(pyrrolidin-1-yl)piperidin-1-yl)methyl)phenyl)-1H-benzo[d]imidazole]
6.85	6.87	5.80	6.05	CS(=O)(=O)c1ccc(-c2nc3c(F)cc(-c4ccc(CN5CCC(N6CCCC6)CC5)cc4)cc3n2C2CC2)cc1 [Example 408, 1-cyclopropyl-4-fluoro-2-(4-(methylsulfonyl)phenyl)-6-(4-((4-(pyrrolidin-1-yl)piperidin-1-yl)methyl)phenyl)-1H-benzo[d]imidazole]
8.28	8.28	5.82	6.00	Cn1c(-c2ccc(S(C)(=O)=O)cc2)nc2c(F)cc(-c3ccc(CN4CCC(N5CCCC5)CC4)cc3)cc21 [Example 409, 4-fluoro-1-methyl-2-(4-(methylsulfonyl)phenyl)-6-(4-((4-(pyrrolidin-1-yl)piperidin-1-yl)methyl)phenyl)-1H-benzo[d]imidazole]
